Data from patent US5801165A, “Antiinflammatory, immunosuppressive and antialleric 16, 17-alkylidioxy-steroids” (Rhone-Poulenc Rorer Limited, priority 1992, dated 1998).
Like-named read-outs stand apart in the source and are kept apart here.

Molecular target: T1, Rat thymus glucocorticoid receptor (Rattus norvegicus, UniProt P06536)
T1 construct: The supernatant cytosol is used as the source of receptor; from tissue; host or cells: thymus of male adrenalectomised rats, 100,000 g supernatant cytosol
T1 sequence (P06536 1-795): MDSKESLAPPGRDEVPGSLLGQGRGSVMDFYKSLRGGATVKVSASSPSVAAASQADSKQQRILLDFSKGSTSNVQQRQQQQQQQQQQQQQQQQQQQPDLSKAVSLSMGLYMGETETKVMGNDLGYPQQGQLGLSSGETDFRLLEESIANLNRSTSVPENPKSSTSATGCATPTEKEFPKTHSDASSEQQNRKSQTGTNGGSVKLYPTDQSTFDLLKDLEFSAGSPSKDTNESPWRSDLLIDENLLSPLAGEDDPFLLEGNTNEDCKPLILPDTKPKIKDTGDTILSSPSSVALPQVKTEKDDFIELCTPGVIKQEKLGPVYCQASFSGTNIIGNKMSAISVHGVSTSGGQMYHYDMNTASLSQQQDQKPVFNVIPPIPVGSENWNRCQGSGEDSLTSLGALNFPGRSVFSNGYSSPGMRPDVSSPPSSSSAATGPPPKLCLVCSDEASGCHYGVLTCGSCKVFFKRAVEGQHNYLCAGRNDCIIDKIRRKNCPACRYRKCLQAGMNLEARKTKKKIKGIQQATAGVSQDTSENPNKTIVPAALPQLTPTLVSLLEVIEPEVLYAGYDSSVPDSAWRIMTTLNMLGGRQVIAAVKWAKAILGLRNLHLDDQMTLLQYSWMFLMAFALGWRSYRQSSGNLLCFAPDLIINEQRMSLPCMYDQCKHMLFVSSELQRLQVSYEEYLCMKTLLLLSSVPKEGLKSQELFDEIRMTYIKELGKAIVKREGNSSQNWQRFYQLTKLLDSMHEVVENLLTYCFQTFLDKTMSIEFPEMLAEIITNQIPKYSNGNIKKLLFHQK
Assay: Steroid binding to the rat thymus glucocorticoid receptor ([3H] dexamethasone displacement)
Description: GLUCOCORTICOID AGONIST ACTIVITY
STEROID BINDING TO THE RAT THYMUS GLUCOCORTICOID RECEPTOR
Thymi of male adrenalectomised rats are removed and homogenised in 3-(N-morpholino)propanesulphonic acid dithiothreitol buffer, and centrifuged at 100,000 g. The supernatant cytosol is used as the source of receptor. […] Bound [^3 H] dexamethasone is separated from free dexamethasone by a dextran coated charcoal technique and is quantified by liquid scintillation counting.

[1] = read-out: IC50 (concentration reducing [3H] dexamethasone binding by 50%), 4 nM [3H] dexamethasone, 24 hours at 4° C., rat thymus cytosol
[2] = 4 nM [3H] dexamethasone, 24 hours at 4° C., rat thymus cytosol, read-out: IC50 (concentration reducing [3H] dexamethasone binding by 50%)

Q: How did the IC50 [1] turn out when `CCC[C@@H]1O[C@@H]2C[C@H]3[C@@H]4CCC5=CC(=O)C=C[C@]5(C)[C@@]4(F)[C@@H](O)C[C@]3(C)[C@]2([S+](C)[O-])O1` (stereo partly drawn) [(20R)-9α-Fluoro-11β-hydroxy-16α,17α-butylidenedioxy-17β-methylsulphinylandrosta-1,4-dien-3-one] was run?
A: 6.6 nM

Q: With `CS[C@@]12OC(C)(C)O[C@@H]1C[C@H]1[C@@H]3C[C@H](F)C4=CC(=O)C=C[C@]4(C)[C@@]3(F)[C@@H](O)C[C@@]12C` [6α,9α-Difluoro-11β-hydroxy-16α,17α-isopropylidenedioxy-17β-(methylthio)androsta-1,4-dien-3-one] as the compound, how does the IC50 [2] read?
A: 3.2 nM

Q: How did the IC50 [2] turn out when `CCCC1O[C@@H]2C[C@H]3[C@@H]4CC(=O)C5=CC(=O)CC[C@]5(C)[C@@]4(F)[C@@H](O)C[C@]3(C)[C@]2(SC)O1` (stereo partly drawn) [(20S)-16α,17α-butylidenedioxy-6α,9α-fluoro-11β-hydroxy-(methylthio)androst-4-en-3,6-dione] was run?
A: 3.4 nM

Q: How did the IC50 [2] turn out when `CCC[C@@H]1O[C@@H]2C[C@H]3[C@@H]4CC(=O)C5=CC(=O)C=C[C@]5(C)[C@@]4(F)[C@@H](O)C[C@]3(C)[C@]2(SC)O1` [(20R)-16α,17α-butylidenedioxy-9α-fluoro-11β-hydroxy-17β-(methylthio)androsta-1,4-diene-3,6-dione] was run?
A: 2.4 nM

Q: `CCC[C@@H]1O[C@@H]2C[C@H]3[C@@H]4CCC5=CC(=O)C=C[C@]5(C)[C@@]4(F)[C@@H](O)C[C@]3(C)[C@]2(SCF)O1` [(20R)-16α,17α-Butylidenedioxy-9α-fluoro-11β-hydroxy-17β-(fluoromethylthio)androsta-1,4-dien-3-one] was tested. Which IC50 [2] did it give?
A: 7.5 nM

Q: For `CCCC1O[C@@H]2C[C@H]3[C@@H]4CCC5=CC(=O)C=C[C@]5(C)[C@@]4(F)[C@@H](O)C[C@]3(C)[C@]2(Sc2ccccn2)O1` (stereo partly drawn) [(20R,S)-16α,17α-Butylidenedioxy-9α-fluoro-11β-hydroxy-17β-(2-pyridylthio)androsta-1,4-dien-3-one], which IC50 is on record?
A: 11.3 nM

Q: With `CC1(C)O[C@@H]2C[C@H]3[C@@H]4CCC5=CC(=O)C=C[C@]5(C)[C@@]4(F)[C@@H](O)C[C@]3(C)[C@]2(S(C)(=O)=O)O1` [9α-Fluoro-11β-hydroxy-16α,17α-isopropylidene-dioxy-17β-methylsulphonylandrosta-1,4-dien-3-one] as the compound, how does the IC50 [2] read?
A: 3.8 nM

Q: Which IC50 [2] does the source give for `CC1(C)O[C@@H]2C[C@H]3[C@@H]4CCC5=CC(=O)C=C[C@]5(C)[C@@]4(F)[C@@H](O)C[C@]3(C)[C@]2(Sc2ccccn2)O1` [9α-Fluoro-11β-hydroxy-16α,17α-isopropylidenedioxy-17β-(2-pyridylthio)androsta-1,4-dien-3-one] here?
A: 27 nM

Q: Which IC50 does the source give for `CCC[C@@H]1O[C@@H]2C[C@H]3[C@@H]4C[C@H](F)C5=CC(=O)C=C[C@]5(C)[C@@]4(F)[C@@H](O)C[C@]3(C)[C@]2(SC)O1` [(20R)-16α,17α-butylidenedioxy-6α,9α-difluoro-11β-hydroxy-17β-(methylthio)-androsta-1,4-dien-3-one] here?
A: 3.7 nM

Q: For `CCC[C@@H]1O[C@@H]2C[C@H]3[C@@H]4C[C@H](F)C5=CC(=O)CC[C@]5(C)[C@@]4(F)[C@@H](O)C[C@]3(C)[C@]2(SCF)O1` [(20R)-6α,9α-Difluoro-11β-hydroxy-16α,17α-butylidenedioxy-17β-fluoromethylthioandrost-4-en-3-one], which IC50 [2] is on record?
A: 3 nM

Q: With `CCC[C@@H]1O[C@@H]2C[C@H]3[C@@H]4C[C@H](F)C5CC(=O)CC[C@]5(C)[C@@]4(F)[C@@H](O)C[C@]3(C)[C@]2(SC)O1` (stereo partly drawn) [(20R)-16α,17α-butylidenedioxy-6α,9α-difluoro-11β-hydroxy-17β-(methylthio)androstan-3-one] as the compound, how does the IC50 [2] read?
A: 2.6 nM

Q: For `CC1(C)O[C@@H]2C[C@H]3[C@@H]4C[C@H](F)C5=CC(=O)C=C[C@]5(C)[C@@]4(F)[C@@H](O)C[C@]3(C)[C@]2(SCF)O1` [6α,9α-Difluoro-11β-hydroxy-16α,17α-isopropylidenedioxy-17β-(fluoromethylthio)androsta-1,4-dien-3-one], which IC50 [2] is on record?
A: 4.1 nM

Q: Which IC50 does the source give for `CCC[C@@H]1O[C@@H]2C[C@H]3[C@@H]4C[C@H](F)C5=CC(=O)C=C[C@]5(C)[C@@]4(F)[C@@H](O)C[C@]3(C)[C@]2(SCF)O1` [(20R)-16α,17α-Butylidenedioxy-6α,9α-difluoro-11β-hydroxy-17β-(fluoromethylthio)androsta-1,4-dien-3-one] here?
A: 2.7 nM

Q: `CCCC1O[C@@H]2C[C@H]3[C@@H]4CCC5=CC(=O)C=C[C@]5(C)[C@@]4(F)[C@@H](O)C[C@]3(C)[C@]2(SC(C)C)O1` (stereo partly drawn) [(20R,S)-16α,17α-Butylidenedioxy-9α-fluoro-11β-hydroxy-17β-(isopropylthio)androsta-1,4-dien-3-one] was tested. Which IC50 [2] did it give?
A: 5.5 nM

Q: Which IC50 [1] does the source give for `CCC[C@H]1O[C@@H]2C[C@H]3[C@@H]4C[C@H](F)C5=CC(=O)C=C[C@]5(C)[C@@]4(F)[C@@H](O)C[C@]3(C)[C@]2(SCF)O1` [(20S)-6α,9α-difluoro-11β-hydroxy-16α,17α-butylidene-fluoromethylthioandrosta-1,4-dien-3-one] here?
A: 2.5 nM

Q: With `CCCC1O[C@@H]2C[C@H]3[C@@H]4CCC5=CC(=O)C=C[C@]5(C)[C@@]4(F)[C@@H](O)C[C@]3(C)[C@]2(SCC)O1` (stereo partly drawn) [(20R,S)-16α,17α-Butylidenedioxy-17β-ethylthio-9α-fluoro-11β-hydroxyandrosta-1,4-dien-3-one] as the compound, how does the IC50 [2] read?
A: 4.1 nM

Q: With `C/C=C/[C@@H]1O[C@@H]2C[C@H]3[C@@H]4CCC5=CC(=O)C=C[C@]5(C)[C@@]4(F)[C@@H](O)C[C@]3(C)[C@]2(SC)O1` [(20R)-16α,17α-[(E)-2-Butenylidenedioxy]-9α-fluoro-11β-hydroxy-17β-(methylthio)androsta-1,4-dien-3-one] as the compound, how does the IC50 [2] read?
A: 2.6 nM

Q: `CCC[C@@H]1O[C@@H]2C[C@H]3[C@@H]4CCC5=CC(=O)C=C[C@]5(C)[C@@]4(F)[C@@H](O)C[C@]3(C)[C@]2(SC)O1` [(20R)-16α,17α-Butylidenedioxy-9α-fluoro-11β-hydroxy-17β-(methylthio)androsta-1,4-dien-3-one] was tested. Which IC50 [2] did it give?
A: 1.7 nM

Q: `CS[C@@]12OC(C)(C)O[C@@H]1C[C@H]1[C@@H]3CCC4=CC(=O)C=C[C@]4(C)[C@@]3(F)[C@@H](O)C[C@@]12C` [9α-Fluoro-11β-hydroxy-16α,17α-isopropylidenedioxy-17β-(methylthio)androsta-1,4-dien-3-one] was tested. Which IC50 did it give?
A: 1.6 nM

Q: With `CCC[C@H]1O[C@@H]2C[C@H]3[C@@H]4C[C@H](F)C5=CC(=O)CC[C@]5(C)[C@@]4(F)[C@@H](O)C[C@]3(C)[C@]2(SC)O1` [(20S)-16α,17α-Butylidenedioxy-6α,9α-difluoro-11β-hydroxy-17β-(methylthio)androst-4-ene-3-one] as the compound, how does the IC50 [2] read?
A: 2.9 nM
